Source: patent US20240376286A1, “DIHYDROXY COMPOUND MANUFACTURING METHOD AND RECYCLED RESIN MANUFACTURING METHOD” (MITSUBISHI GAS CHEMICAL COMPANY, INC., priority 2021, published 2024)

Assays:
[1] = Solubility in toluene at 25° C.; assay type: physicochemical; conditions: solvent toluene
[2] = Solubility in methyl ethyl ketone (MEK) at 25° C.; assay type: physicochemical; conditions: solvent MEK

solubility in toluene at 25° C. [1]	solubility in methyl ethyl ketone (MEK) at 25° C. [2]	SMILES
0.1 g/(10 mL)	0.75 g/(10 mL)	OCCOc1ccc2ccccc2c1-c1c(OCCO)ccc2ccccc12 [BNE, 2,2′-bis(2-hydroxyethoxy)-1,1′-binaphthalene]
0.05 g/(10 mL)	4.5 g/(10 mL)	OCCOc1ccc(C2(c3ccc(OCCO)c(-c4ccccc4)c3)c3ccccc3-c3ccccc32)cc1-c1ccccc1 [BPPEF, 9,9-bis[4-(2-hydroxyethoxy)-3-phenylphenyl]fluorene]
0.3 g/(10 mL)	0.3 g/(10 mL)	OCCOc1ccc2cc(-c3ccccc3)ccc2c1-c1c(OCCO)ccc2cc(-c3ccccc3)ccc12 [DP, 2,2′-bis(2-hydroxyethoxy)-6,6′-diphenyl-1,1′-binaphthalene]
